# Assay results from US7235536B2, “Cellulose sulfate and other sulfated polysaccharides to prevent and treat papilloma virus infection and other infections” (Rush Presbyterian-St. Luke's Medical Center, priority 2000, dated 2007).
# Where two headings read alike, the source gives them in different places.
# Tests used:
# [1] = tested on: Bacteroides thetaiotaomicron; assay: Broth method MIC; assay type: cell-based
# [2] = tested on: Peptostreptococcus tetradius; assay: Broth method MIC; assay type: cell-based; settings: for CS MIC: Broth (study 2)
# HPV-11 = assay: RT-PCR ELISA for transient infection of human A431 cells, HPV-11; assay type: cell-based, human papilloma virus; settings: with virus (HPV-11)
# Method: Cellulose sulfate and dextran sulfate were each prepared as a 2 mg/ml solution in 0.9% NaCl and tested for microbicidal activity using the in vitro HPV transient infection assay originally described by Smith and colleagues (Smith, L. H., C. Foster, M. E. Hitchcock, and R. Isseroff. 1993. In vitro HPV-11 infection of human foreskin. J. Invest. Dermatol. 101:292-295) with some modifications (Ludmerer, S. W., W. L. McClements, X. M. Wang, J. C. Ling, K. U. Jansen, and N. D. Christensen. 2000. HPV11 mutant virus-like parties elicit immune responses that neutralize virus and delineate a novel neutralizing domain. Virology 266:237-245). An ELISA-based read-out of Optical Density (OD) values using alkaline phosphatase cleavage of the substrate p-nitrophenyl phosphate was also used to measure HPV infection as described below.
# A modification of the RT-PCR assay that incorporates an ELISA-based read-out (Boehringer-Mannheim) was also included to assess microbicidal activity. Replicate cell cultures of A431 cells were infected with an aliquot of infectious HPV virions as described above. After 4 days of culture, cells were harvested and RNA extracted. RNA was subjected to RT using downstream anti-sense (reverse) primers for HPV-11 or HPV-40 and β-actin (as a control/housekeeping cellular transcript) to initiate cDNA synthesis. The cDNA was processed through 2 sets of 30 cycles of PCR amplification using nested primers: the second set of cycles used digoxygenin (DIG)-dUTP to label the PCR products with DIG. DIG-labeled PCR products were denatured then renatured together with a biotinylated oligonucleotide specific for the targeted PCR product. Biotinylated products were detected in ELISA with plates coated with streptavidin (to capture the biotinylated target PCR product) then anti-DIG antibody and substrate. Labeled PCR products were added directly to ELISA plates, or titrated at 10-fold dilutions in duplicate for each cell culture for each virus dilution.
# Porphyromonas levii = assay: Agar method MIC; assay type: cell-based; settings: for CS MIC: Agar
# BPV-1 = BPV-1 focus-forming assay, cells pre-incubated with compound and washed before virus (Table D); assay type: cell-based, bovine papilloma virus; settings: for Average ± standard deviation (foci/well): C127-D10 cells, washed before virus
# Method: Microbicidal activity of compounds was also tested by pre-incubation of cells with compounds followed by addition of virus to compound-coated C127 cells. In these experiments, dilutions of compounds were added to cultures of C127 cells, incubated for 1 hr at 37° C., washed 3 times with media to remove unbound compound, prior to addition of approximately 100 focus-forming units of BPV-1. The cultures were incubated for an additional hour, washed three times to remove unbound virus, then the incubation was continued for two weeks with media changes every 3-4 days and foci counted as described above.
# Pre-incubation of C127-D10 cells with compounds prior to addition of BPV-1 was tested to determine whether the microbicidal effects of CS and DS extended to a blockage of virus interaction with cell surfaces. In these experiments, titrations of compounds were added to cell cultures followed by washing away unbound reagent prior to addition of virus. After a one-hour incubation with virus, unbound virus was removed by washing and the cultures monitored for foci after two weeks.
# [3] = tested on: Fusobacterium gonidiaformans; assay: Broth method MIC; assay type: cell-based; settings: for CS MIC: Broth (study 2)
# Prevotella intermedia = assay: Broth method MIC; assay type: cell-based; settings: for CS MIC: Broth (study 2)
# [4] = tested on: Prevotella melaminogenica; assay: Broth method MIC; assay type: cell-based; settings: for CS MIC: Broth (study 2)
# Bacteroides fragilis [5] = assay: Broth method MIC; assay type: cell-based
# [6] = tested on: Bacteroides thetaiotaomicron; assay: Agar method MIC; assay type: cell-based
# [7] = in vivo
# Description: Cellulose sulfate offers a further advantage in that irritation by a cytotoxic agent can cause lesions which may facilitate infection and the use of cellulose sulfate is not associated with such risks of infection.
# Gardnerella vaginalis [8] = assay: Agar well growth inhibition on HBT bilayer agar plates; assay type: cell-based
# Method: A fresh subculture of G. Vaginalis which is bacteria frequently associated with vaginitis was obtained after overnight growth (16 hours) on a V-agar plate and suspended in sterile phosphate buffered saline (PBS; pH 7.2) to achieve a turbidity of 0.5 (McFarland standard; approximately 10^8 CFU/ml). The suspension was diluted 10 fold and applied to HBT bilayer agar plates by swabbing the entire plate. The plate was allowed to dry for 2-3 min and small wells punched in the agar, 10 mm in diameter. Samples of cellulose sulfate were dissolved at 10 mg/ml in PBS and 0.2 ml placed in the agar wells. As control, 0.2 ml PBS was placed in one of the wells. Growth inhibition was indicated by a light area around the well.
# The studies were repeated using various concentrations of cellulose sulfate (ranging from 10 mg/ml to 0.125 mg/ml) and 4 different Gardnerella vaginalis strains. […] The lowest initial concentration of cellulose sulfate at which growth inhibition occurred was 0.5 mg/ml.
# Bacteroides fragilis [9] = settings: Agar
# Gardnerella vaginalis [10] = assay: Broth method MIC; assay type: cell-based; settings: for CS MIC: Broth (study 2)
# [11] = ATCC (first listed), Broth (study 1)
# [12] = ATCC (first listed), Broth (study 2)
# [13] = ATCC (second listed), Broth (study 2)
substance,measurement,setting,value
sodium cellulose sulfate,CS MIC,[1]; [11],NI (not inhibited by 10 mg/ml (the highest concentration tested))
same,CS MIC,[1]; [12],NI (not inhibited by 10 mg/ml (the highest concentration tested))
same,CS MIC,[1]; [13],10000 µg/mL
same,growth inhibition,[1]; at the concentrations tested,One strain of Bacteroides thetaiotaomicron was inhibited but three others were not
same,CS MIC,"[1]; rma# 11604, Broth (study 2)",NI (not inhibited by 10 mg/ml (the highest concentration tested))
same,CS MIC,"[1]; rma# 11651, Broth (study 2)",NI (not inhibited by 10 mg/ml (the highest concentration tested))
same,growth inhibition,[2]; all strains,inhibited
same,CS MIC,[2]; rma# 11253,5000 µg/mL
same,CS MIC,[2]; rma# 11287,5000 µg/mL
same,"Mean (SD) of O.D. reading for RT-PCR ELISA, HPV-11 probe",HPV-11; 10 μg/ml at viral pretreatment,1.485 (0.045) O.D.
same,"Mean (SD) of O.D. reading for RT-PCR ELISA, HPV-11 probe",HPV-11; 100 μg/ml at viral pretreatment,0.049 (0.001) O.D.
same,"Mean (SD) of O.D. reading for RT-PCR ELISA, HPV-11 probe",HPV-11; 1000 μg/ml at viral pretreatment,0.038 (0.001) O.D.
same,lowest concentration of compound that inhibited growth,"Porphyromonas levii; Example 8, agar, 48 hours anaerobic, highest tested 625 μg/ml",40 µg/mL
same,CS MIC,Porphyromonas levii; rma# 11425,>625 µg/mL
same,CS MIC,Porphyromonas levii; rma# 11601,40 µg/mL
same,Average ± standard deviation (foci/well),BPV-1; 10 μg/ml,103 ± 6.3 foci/well
same,Average ± standard deviation (foci/well),BPV-1; 100 μg/ml,120 ± 8.4 foci/well
same,Average ± standard deviation (foci/well),"BPV-1; 1,000 μg/ml",87 ± 45.1 foci/well
same,Average ± standard deviation (foci/well),"BPV-1; 10,000 μg/ml",2 ± 1.3 foci/well
same,microbicidal effects,"BPV-1; C127-D10 cells pre-treated, except at 10 mg/ml",only weak microbicidal effects
same,growth inhibition,"[3]; both strains, broth method",inhibited
same,CS MIC,[3]; rma# 11423,5000 µg/mL
same,CS MIC,[3]; rma# 11653,5000 µg/mL
same,growth inhibition,Prevotella intermedia; all strains,inhibited
same,CS MIC,Prevotella intermedia; rma# 11142,10000 µg/mL
same,CS MIC,Prevotella intermedia; rma# 11168,10000 µg/mL
same,growth inhibition,[4]; at the concentrations tested,Neither one of the strains of Prevotella melaminogenica were inhibited
same,CS MIC,[4]; rma# 5657,NI (not inhibited by 10 mg/ml (the highest concentration tested))
same,CS MIC,[4]; rma# 9052,NI (not inhibited by 10 mg/ml (the highest concentration tested))
same,CS MIC,Bacteroides fragilis [5]; [11],NI (not inhibited by 10 mg/ml (the highest concentration tested))
same,CS MIC,Bacteroides fragilis [5]; [12],10000 µg/mL
same,CS MIC,Bacteroides fragilis [5]; [13],NI (not inhibited by 10 mg/ml (the highest concentration tested))
same,growth inhibition,Bacteroides fragilis [5]; at the concentrations tested,one strain of Bacteroides fragilis was inhibited but three others were not
same,CS MIC,"Bacteroides fragilis [5]; rma# 11647, Broth (study 2)",NI (not inhibited by 10 mg/ml (the highest concentration tested))
same,CS MIC,"Bacteroides fragilis [5]; rma# 11652, Broth (study 2)",NI (not inhibited by 10 mg/ml (the highest concentration tested))
same,CS MIC,[6]; ATCC (first listed),>625 µg/mL
same,CS MIC,[6]; rma# 11604,>625 µg/mL
same,CS MIC,[6]; rma# 11651,>625 µg/mL
same,tolerability versus K-Y Jelly,[7],as well as or even better than K-Y Jelly
same,tolerability versus nonoxynol-9,[7],better tolerated than nonoxynol-9
same,"area of growth inhibition around the well, diameter","Gardnerella vaginalis [8]; 10 mg/ml in PBS, 0.2 ml in agar well",6 mm
same,growth inhibition,"Gardnerella vaginalis [8]; 4 different Gardnerella vaginalis strains, 10 mg/ml to 0.125 mg/ml",Dose dependent inhibition
same,lowest initial concentration at which growth inhibition occurred,"Gardnerella vaginalis [8]; 4 different Gardnerella vaginalis strains, 10 mg/ml to 0.125 mg/ml tested",0.5 mg/mL
same,CS MIC,Bacteroides fragilis [9]; ATCC (first listed),>625 µg/mL
same,CS MIC,Bacteroides fragilis [9]; rma# 11647,>625 µg/mL
same,CS MIC,Bacteroides fragilis [9]; rma# 11652,>625 µg/mL
same,growth inhibition,Gardnerella vaginalis [10]; both strains,inhibited
same,CS MIC,Gardnerella vaginalis [10]; rma# 12066,5000 µg/mL
same,CS MIC,Gardnerella vaginalis [10]; rma# 12262,5000 µg/mL
